Patent US20110105544A1, “CARBOXYLIC DERIVATIVES FOR USE IN THE TREATMENT OF CANCER” (priority 2007, published 2011)
Where a name gives a salt, the structure may show the parent alone.

Experiments:
[1] = test system: human breast cancer cell line MCF-7; test: alamarBlue viability assay, MCF-7; format: cell-based; details: MCF7, 72 hours, dose required to inhibit cell growth by 50%
Protocol: (§1) The human colon cancer cell line HCT116 and the human breast cancer cell line MCF-7 were from the American Type Culture Collection (ATCC; CCL-247 and HTB-22, respectively).
(§2) The HCT116 cell line was maintained in DMEM GlutaMAX (Invitrogen) supplemented with 10% fetal calf serum and the MCF7 cell line was maintained in RPMI1640 GlutaMAX (Invitrogen) containing 1 mM sodium piruvate and 10% fetal calf serum.
(§3) Cells were grown in a humidified incubator at 37° C. in 5% CO2.
(§4) Cells were plated in 96-well plates at a density of 6000 cells/well in 100 μl medium 24 h before addition of drugs. […] To do so, a drugs-dilution plate at twice the screening concentrations was prepared. 72 hours later, alamarBlue (Biosource, Invitrogen) viability assay was performed following manufacturer's protocol. In brief, alamarBlue diluted in media was added to cells to have a 5% solution. Cells were incubated at 37° C., 3 hours and at room temperature, 30 min. Cells with no drug and, cells with no drug and lysed with triton X-100 were used as controls. Fluorescence was monitored at 530 nm excitation and 590 nm emission wavelengths. Results were quantified using Infinite F200 Microplate Reader (Tecan Group, Ltd.). EC50 were calculated as the dose of drugs required to inhibit cell growth by 50%, with Origin 7.0 computer program.

[2] = test system: human colon cancer cell line HCT116; test: alamarBlue viability assay, HCT116; format: cell-based; details: HCT-116, 72 hours, dose required to inhibit cell growth by 50%
Protocol: as §1, §2, §3, §4

human recombinant HDAC 8 = molecular target: T1, human recombinant HDAC 8 (Homo sapiens, UniProt Q9BY41); test: HDAC inhibition assay (Fluor de Lys), HDAC8; format: biochemical; details: inhibitor-protein incubation 0 hours, reaction 3 hours, 37° C.
T1 construct: purchased BPS Bioscience 50008
T1 sequence (Q9BY41 1-377): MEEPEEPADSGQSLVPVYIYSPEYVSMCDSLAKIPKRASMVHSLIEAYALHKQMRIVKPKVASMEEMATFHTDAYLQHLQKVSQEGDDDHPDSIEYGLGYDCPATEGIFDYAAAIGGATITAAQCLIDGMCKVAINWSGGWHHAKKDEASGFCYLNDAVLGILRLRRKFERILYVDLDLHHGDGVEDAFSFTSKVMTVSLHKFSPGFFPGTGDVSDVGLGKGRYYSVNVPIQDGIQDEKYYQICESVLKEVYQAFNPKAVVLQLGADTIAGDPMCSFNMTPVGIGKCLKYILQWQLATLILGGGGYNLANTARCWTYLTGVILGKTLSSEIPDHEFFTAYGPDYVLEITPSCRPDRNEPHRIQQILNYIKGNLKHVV
Protocol: (§5) All assays were carried out in the assay buffer: 50 mM Tris/Cl, pH 8.0, 137 mM NaCl, 2.7 mM KCl, 1 mM MgCl2).
(§6) Reactions were carried out in a 96-wells microplate (Corning 96 well Flat Bottom Non-binding surface (black) ref. 3651).
(§7) Potential inhibitors were added after five fold serial dilutions in DMSO. Final DMSO concentration in the assay microplate was kept at 2%.
(§8) Afterwards, human recombinant HDAC1, HDAC 2 or HDAC 8 were added up to […] respectively in assay buffer. When necessary, the mixture was incubated at room temperature prior the addition of substrate.
(§9) Total reaction volume of 50 μl. Human recombinant HDACs could be acquired from commercial sources (HDAC1: ref. #50001, BPS Bioscience™; HDAC 2: ref. #50002, BPS Bioscience™; HDAC 8: ref. #50008, BPS Bioscience™).
(§10) Reactions were stopped with 50 μl Developer (KI-105 Fluor de Lys™, BIOMOL®) with 2 μmol/L trichostatin A (TSA, final concentration 1 μmol/L). After 20 minutes at 37° C., fluorescence (excitation 360 nm, emission 460 nm) was measured using an Infinite F200 fluorimeter (Tecan). Background was determined in reactions using substrate in the absence of enzyme.
(§11) IC50 values are defined as the compound concentration at which the deacetylase activity is 50% inhibited. In these assays the following grading was used (I: IC50≦10 μM; II: 10 μM<IC50≦100 μM; III: 100 μM<IC50≦1 mM) The results obtained are summarized in Table 4.

human recombinant HDAC 2 = molecular target: T2, human recombinant HDAC 2 (Homo sapiens, UniProt Q92769); test: HDAC inhibition assay (Fluor de Lys), HDAC2; format: biochemical; details: inhibitor-protein incubation 2 hours, reaction 1 h 30 min, 37° C.
T2 construct: purchased BPS Bioscience 50002
T2 sequence (Q92769 whole entry): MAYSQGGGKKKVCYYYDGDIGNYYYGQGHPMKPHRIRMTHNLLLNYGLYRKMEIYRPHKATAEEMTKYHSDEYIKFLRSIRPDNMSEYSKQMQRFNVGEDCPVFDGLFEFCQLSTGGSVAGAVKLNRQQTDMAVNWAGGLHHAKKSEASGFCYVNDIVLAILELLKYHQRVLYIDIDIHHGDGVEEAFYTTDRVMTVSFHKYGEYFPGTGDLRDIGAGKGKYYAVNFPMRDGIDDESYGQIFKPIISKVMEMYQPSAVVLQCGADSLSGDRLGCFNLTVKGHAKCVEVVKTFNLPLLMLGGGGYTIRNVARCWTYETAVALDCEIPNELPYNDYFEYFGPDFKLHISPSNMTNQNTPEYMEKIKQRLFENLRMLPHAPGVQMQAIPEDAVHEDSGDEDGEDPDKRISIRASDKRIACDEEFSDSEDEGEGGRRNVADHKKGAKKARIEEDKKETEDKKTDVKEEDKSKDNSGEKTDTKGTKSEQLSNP
Protocol: as §5, §6, §7, §8, §9, §10, §11

MDA-MB-468 (breast) = test: alamarBlue viability assay, MDA-MB-468; format: cell-based; details: Homo sapiens, 72 hours
Protocol: (§12) Additionally, the following cancer cell lines were used:
as §3
(§13) Cells were plated in 96-well plates at a density of 6000 cells/well in 100 μl medium 24 h before addition of drugs. They were then added in concentrations from 100 μM to 0.45 nM (each concentration in triplicate). To do so, a drugs-dilution plate at twice the screening concentrations was prepared. 72 hours later, alamarBlue (Biosource, Invitrogen) viability assay was performed following manufacturer's protocol. In brief, alamarBlue diluted in media was added to cells to have a 5% solution. Cells were incubated at 37° C., 3 hours and at room temperature, 30 min. Cells with no drug and, cells with no drug and lysed with triton X-100 were used as controls. Fluorescence was monitored at 530 nm excitation and 590 nm emission wavelengths. Results were quantified using Infinite F200 Microplate Reader (Tecan Group, Ltd.). EC50 were calculated as the dose of drugs required to inhibit cell growth by 50%, with Origin 7.0 computer program.

MDA-MB-435P (breast) = test: alamarBlue viability assay, MDA-MB-435P; format: cell-based; details: 72 hours
Protocol: as §12, §3, §13

SMILES	EC50 [1]	EC50 [2]	IC50 (human recombinant HDAC 8)	IC50 (human recombinant HDAC 2)	EC50 (MDA-MB-468 (breast))	EC50 (MDA-MB-435P (breast))
COC(=O)C(C)CCc1ccccc1 (stereo not shown) [Example 2, methyl 2-methyl-4-phenylbutanoate]	696 µM	238 µM				
CC(CCc1ccccc1)C(=O)O (stereo not shown) [Example 3, 2-Methyl-4-phenylbutanoic acid]	> 5000 µM	4510 µM	100 to 1000 µM			
CCC(CCc1ccccc1)C(=O)OC (stereo not shown) [Example 4, Methyl 2-ethyl-4-phenylbutanoate]	354 µM	105 µM				
CCC(CCc1ccccc1)C(=O)O (stereo not shown) [Example 5, 2-Ethyl-4-phenylbutanoic acid]	1420 µM	2420 µM				
CCCC(CCc1ccccc1)C(=O)O (stereo not shown) [Example 7, 2-(2-Phenylethyl)pentanoic acid]	1850 µM	680 µM	10 to 100 µM	100 to 1000 µM		
COC(=O)C(CCc1ccccc1)Cc1ccccc1 (stereo not shown) [Example 8, Methyl 2-benzyl-4-phenylbutanoate]	5000 µM					
CNS(=O)(=O)c1ccc(CCCC(CCc2ccccc2)C(=O)O)cc1 (stereo not shown) [Example 13, 5-(4-[(Methylamino)sulfonyl]phenyl)-2-(2-phenylethyl)pentanoic acid]	1800 µM	2400 µM	100 to 1000 µM			
CNS(=O)(=O)c1cccc(CCCC(CCc2ccccc2)C(=O)OCOC(C)=O)c1 (stereo not shown) [Example 19, (Acetyloxy)methyl 5-(3-[(methylamino)sulfonyl]phenyl)-2-(2-phenylethyl)pentanoate]		65 µM			13 µM	6.7 µM
O=C(O)C(C/C=C/c1ccccc1)CCc1ccccc1 (stereo not shown) [Example 21, (4E)-5-Phenyl-2-(2-phenylethyl)pent-4-enoic acid]		204 µM	10 to 100 µM	100 to 1000 µM		
O=C(O)C(CCCc1ccc2ccccc2c1)CCc1ccccc1 (stereo not shown) [Example 22, 5-(2-Naphthyl)-2-(2-phenylethyl)pentanoic acid]		96.5 µM	10 to 100 µM	100 to 1000 µM		
O=C(O)C(CCCc1cccc2ccccc12)CCc1ccccc1 (stereo not shown) [Example 23, 5-(1-Naphthyl)-2-(2-phenylethyl)pentanoic acid]		67 µM	10 to 100 µM	10 to 100 µM		
CN(C)c1ccc(C(=O)Nc2cccc(CCCC(CCc3ccccc3)C(=O)O)c2)cc1 (stereo not shown) [Example 24, 5-[3-{[4-(dimethylamino)benzoyl]amino}phenyl]-2-(2-phenylethyl)pentanoic acid hydrochloride]		75 µM	≤ 10 µM	10 to 100 µM		
CNS(=O)(=O)c1ccc(CCCC(CCc2ccccc2)C(=O)O)s1 (stereo not shown) [Example 26, 5-{5-[(Methylamino)sulfonyl]thien-2-yl}-2-(2-phenylethyl)pentanoic acid]		1700 µM	100 to 1000 µM			
O=C(O)C(CCCc1cccc(S(=O)(=O)NCc2ccccc2)c1)CCc1ccccc1 (stereo not shown) [Example 27, 5-(3-[(Benzylamino)sulfonyl]phenyl)-2-(2-phenylethyl)pentanoic acid]		140 µM	10 to 100 µM	10 to 100 µM		
O=C(O)C(CCCc1ccccc1)CCc1ccccn1 (stereo not shown) [Example 28, 5-Phenyl-2-(2-pyridin-2-ylethyl)pentanoic acid]		312 µM	100 to 1000 µM			
COc1cccc(CCC(CCCc2ccccc2)C(=O)O)c1 (stereo not shown) [Example 29, 2-[2-(3-methoxyphenyl)ethyl]-5-phenylpentanoic acid]		166 µM	10 to 100 µM	100 to 1000 µM		
O=C(O)C(CCCc1ccccc1)CCc1cccc(O)c1 (stereo not shown) [Example 30, 2-[2-(3-Hydroxyphenyl)ethyl]-5-phenylpentanoic acid]		58.2 µM	100 to 1000 µM			
CC(=O)Nc1ccc(CCC(CCCc2ccccc2)C(=O)O)cc1 (stereo not shown) [Example 31, 2-{2-[4-(Acetylamino)phenyl]ethyl}-5-phenylpentanoic acid]			10 to 100 µM	100 to 1000 µM		
CCCC(CCCc1ccccc1)C(=O)O (stereo not shown) [Example 35, 5-Phenyl-2-propylpentanoic acid]		1300 µM	10 to 100 µM	100 to 1000 µM		
Cc1ccc(NS(=O)(=O)c2cccc(C#CCC(CCc3ccccc3)C(=O)O)c2)cc1 (stereo not shown) [Example 38, 5-[3-(4-Methylanilinosulfonyl)phenyl]-2-(2-phenylethyl)pent-4-ynoic acid]		121 µM	10 to 100 µM	100 to 1000 µM		
O=C(O)C(CCCc1cccc(S(=O)(=O)Nc2ccccc2)c1)CCc1ccccc1 (stereo not shown) [Example 39]		1200 µM	100 to 1000 µM			
O=C(O)C(CCCc1ccc(S(=O)(=O)Nc2ccccc2)cc1)CCc1ccccc1 (stereo not shown) [Example 40, 5-(4-[Anilinosulfonyl]phenyl)-2-(2-phenylethyl)pentanoic acid]		44.8 µM	10 to 100 µM	10 to 100 µM		
CCc1ccc(CCC(CCCc2ccccc2)C(=O)O)cc1 (stereo not shown) [Example 45, 2-[2-(4-Ethylphenyl)ethyl]-5-phenylpentanoic acid]		165 µM	≤ 10 µM	10 to 100 µM		
CCc1ccc(CCC(CCCc2cccc(NC(=O)c3ccc(N(C)C)cc3)c2)C(=O)O)cc1 (stereo not shown) [Example 49, 5-(3-{[4-(Dimethylamino)benzoyl]amino}phenyl)-2-[2-(4-ethylphenyl)ethyl]pentanoic acid]		140 µM	≤ 10 µM	100 to 1000 µM		
COc1ccc(CCC(CCCc2ccccc2)C(=O)O)cc1 (stereo not shown) [Example 57, 2-[2-(4-Methoxyphenyl)ethyl]-5-phenylpentanoic acid]		242 µM	10 to 100 µM	100 to 1000 µM		
O=C(O)C(CCCc1ccccc1)OCc1ccccc1 (stereo not shown) [Example 69, 2-(Benzyloxy)-5-phenylpentanoic acid]		965 µM	10 to 100 µM	100 to 1000 µM		
O=C(O)C(CCCc1ccccc1)CCc1ccc(-c2cccnc2)cc1 (stereo not shown) [Example 77, 2-[2-(4-Pyridin-3′-ylphenyl)ethyl]-5-phenylpentanoic acid]		90 µM	≤ 10 µM	10 to 100 µM		
O=C(O)C(CCCc1cccc2ccccc12)CCc1ccc(-c2cccs2)cc1 (stereo not shown) [Example 79, 5-(1-Naphthyl)-2-[2-(4′-thien-2-ylphenyl)ethyl]-pentanoic acid]		36.7 µM		100 to 1000 µM		
O=C(O)C(CCCc1cccc2ccccc12)CCc1ccc(-c2cccnc2)cc1 (stereo not shown) [Example 80, 5-(1-Naphthyl)-2-[2-(4′-pyridin-3-ylphenyl)ethyl]-pentanoic acid]		107 µM		10 to 100 µM		
